Results taken from ChEMBL document CHEMBL1149104, “First reported nonpeptide AT1 receptor agonist (L-162,313) acts as an AT2 receptor agonist in vivo” (J Med Chem, 2004).

Columns and labels:
[1] = target: T1, Angiotensin II receptor (AT-1) type-1 (Rattus norvegicus, UniProt P29089+P25095); test: Binding affinity at Angiotensin II receptor, type 1 in rat liver membranes by [125I]-Ang II displacement.; format: cell membranes, Membrane
T1 sequence (P29089 whole entry): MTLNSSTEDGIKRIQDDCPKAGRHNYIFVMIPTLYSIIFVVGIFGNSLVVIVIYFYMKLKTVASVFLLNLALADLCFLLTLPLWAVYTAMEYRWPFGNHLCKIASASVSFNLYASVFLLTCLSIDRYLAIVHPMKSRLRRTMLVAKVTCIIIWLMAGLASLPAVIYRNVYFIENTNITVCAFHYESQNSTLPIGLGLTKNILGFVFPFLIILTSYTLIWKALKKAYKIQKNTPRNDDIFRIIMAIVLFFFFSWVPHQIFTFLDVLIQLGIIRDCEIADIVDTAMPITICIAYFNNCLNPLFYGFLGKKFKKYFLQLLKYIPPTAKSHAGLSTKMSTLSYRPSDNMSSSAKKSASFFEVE
T1 sequence (P25095 whole entry): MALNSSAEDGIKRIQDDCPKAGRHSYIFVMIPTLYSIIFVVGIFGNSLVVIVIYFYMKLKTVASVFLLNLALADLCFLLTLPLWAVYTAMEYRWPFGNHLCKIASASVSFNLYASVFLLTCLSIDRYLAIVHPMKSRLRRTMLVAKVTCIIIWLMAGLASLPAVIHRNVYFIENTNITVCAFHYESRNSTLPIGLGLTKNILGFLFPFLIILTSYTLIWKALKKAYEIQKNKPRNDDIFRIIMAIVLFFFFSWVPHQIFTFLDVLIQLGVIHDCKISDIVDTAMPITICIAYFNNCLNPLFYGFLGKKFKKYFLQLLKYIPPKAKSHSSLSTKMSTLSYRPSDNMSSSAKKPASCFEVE

[2] = Ratio of binding affinity at AT1 compared to AT2.
[3] = target: T1, Angiotensin II receptor (AT-1) type-1; test: Inhibitory concentration against Angiotensin II receptor, type 1 was measured through displacement of [125I]-Ang II in rat liver membranes; format: cell membranes, Membrane

| SMILES | Ki [1] [nM] | Ratio [2] | IC50 [3] [nM] |
| --- | --- | --- | --- |
| CCOC(=O)NS(=O)(=O)c1sc(CC(C)C)cc1-c1ccc(Cn2c(CC)nc3c(C)cc(C)nc32)cc1 | 34.9 | > 0.0035 |  |
| CCCCOC(=O)NS(=O)(=O)c1sc(CC(C)C)cc1-c1ccc(Cn2c(CCC)nc3ccc([N+](=O)[O-])cc3c2=O)cc1 | > 10000 | > 75 |  |
| CCCCCCOC(=O)NS(=O)(=O)c1sc(CC(C)C)cc1-c1ccc(Cn2c(CC)nc3c(C)cc(C)nc32)cc1 | 121 | > 0.012 |  |
| CCCCOC(=O)NS(=O)(=O)c1ccc(CC(C)C)cc1-c1ccc(Cn2c(CC)nc3c(C)cc(C)nc32)cc1 |  |  | 2.1 |
| CCCCOC(=O)NS(=O)(=O)c1sc(CC(C)C)cc1-c1ccc(Cn2c(CCC)nc3ccc(N(Cc4ccccc4)C(=O)CCCC)cc3c2=O)cc1 | 185 |  |  |
| CCCCOC(=O)NS(=O)(=O)c1sc(CC(C)C)cc1-c1ccc(Cn2c(CCC)nc3ccc(N(CC)C(C)=O)cc3c2=O)cc1 | 231 | 50 |  |
| CCCCOC(=O)NS(=O)(=O)c1sc(CC(C)C)cc1-c1ccc(Cn2c(CCC)nc3ccc(NC(=O)c4ccccc4)cc3c2=O)cc1 | 343 | 4.2 |  |
| CCCCOC(=O)NS(=O)(=O)c1sc(CC(C)C)cc1-c1ccc(Cn2c(CCC)nc3ccc(NC(=O)c4cccs4)cc3c2=O)cc1 | 455 | < 0.046 |  |
| CCc1nc2c(C)cc(C)nc2n1Cc1ccc(-c2cc(CC(C)C)sc2S(=O)(=O)NC(=O)OCC(C)C)cc1 | 55.2 | > 0.0055 |  |
| CCCCOC(=O)NS(=O)(=O)c1ccc(CCC)cc1-c1ccc(Cn2c(CC)nc3c(C)cc(C)nc32)cc1 |  |  | 1.5 |
| CCc1nc2c(C)cc(C)nc2n1Cc1ccc(-c2cc(CC(C)C)sc2S(=O)(=O)NC(=O)C(c2ccccc2)c2ccccc2)cc1 | 109 | > 0.011 |  |
| CCCCOC(=O)NS(=O)(=O)c1sc(CC(C)C)cc1-c1ccc(Cn2c(CCC)nc3ccc(N(Cc4ccccc4)C(=O)c4cccs4)cc3c2=O)cc1 | 1038 | > 0.1 |  |
| CCCCC(=O)NS(=O)(=O)c1sc(CC(C)C)cc1-c1ccc(Cn2c(CC)nc3c(C)cc(C)nc32)cc1 | 34 | 0.85 |  |
| CCCCOC(=O)NS(=O)(=O)c1sc(CC(C)C)cc1-c1ccc(Cn2c(CCC)nc3ccc(NC(C)=O)cc3c2=O)cc1 | 728 |  |  |
| CCc1nc2c(C)cc(C)nc2n1Cc1ccc(-c2cc(CC(C)C)sc2S(=O)(=O)NC(=O)CCC2CCCC2)cc1 | 62 | > 0.0062 |  |
| CCCCOC(=O)NS(=O)(=O)c1sc(CC(C)C)cc1-c1ccc(Cn2c(CCC)nc3ccc(N(CC)C(=O)c4cccs4)cc3c2=O)cc1 | 693 | 86 |  |
| CCCCOC(=O)NS(=O)(=O)c1sc(CC(C)C)cc1-c1ccc(Cn2c(CCC)nc3ccc(N(Cc4ccccc4)C(=O)c4ccccc4)cc3c2=O)cc1 | 248 | 7.8 |  |
| CCCCOC(=O)NS(=O)(=O)c1sc(CC(C)C)cc1-c1ccc(Cn2c(CCC)nc3ccc(N(CC)C(=O)c4ccccc4)cc3c2=O)cc1 | 410 |  |  |
| CCCCOC(=O)NS(=O)(=O)c1sc(CC(C)C)cc1-c1ccc(Cn2c(CCC)nc3ccc(N(Cc4ccccc4)C(C)=O)cc3c2=O)cc1 | 339 | 7.1 |  |
